{"source": "patent US20250099475A1", "about": "“METHODS OF TREATING HYPERTENSION BY PERIODIC SUPPRESSION OF ALDOSTERONE SYNTHASE” (Mineralys Therapeutics, Inc., priority 2022, published 2025)", "key": {"[1]": {"assay": "Phase 1 part 2 multiple ascending dose: pharmacokinetics", "assay_type": "in vivo, human", "conditions": "for half-life: male, human, plasma, oral", "method": "A 4-part, Phase 1 randomized, double-blind, placebo-controlled, first-in-human study was performed to determine the safety, tolerability, PK, and PD of single ascending doses (SADs; part 1) and multiple ascending doses (MADs; part 2) of Compound A HBr in healthy participants. The study also assessed whether there were sex (part 3) and age-related (part 4) effects on the PK of a single dose of Compound A HBr. The study was approved by the local independent ethics committee; the BEBO foundation in Assen, Netherlands; and the Central Committee on Research Involving Human Subjects in The Hague, Netherlands; and conducted according to the provisions of the Declaration of Helsinki. Written informed consent was obtained from each study participant before conducting any protocol-related procedures.\nIn part 2, Compound A HBr or placebo was administered to a total of 36 healthy Caucasian men aged 19 to 54 years (inclusive) in 3 cohorts of 12 participants each. In each cohort, 9 participants were randomized to receive multiple doses of Compound A HBr and 3 participants were randomized to receive matching placebo. The participants received daily doses in the fed state from Day 1 to Day 7. The doses were administered in an ascending order per cohort. Progression to the next dose level and dose selection were based on available data from part 1 and the preceding dose cohort in part 2 (safety, tolerability, and PD data [up to 48 hours post-final dose] and available PK data [up to 24 hours post-final dose] from a minimum of 10 participants [Compound A HBr n≥7] in the preceding dose cohort). The final dose levels of Compound A HBr for part 2 were 40, 120, and 360 mg. An ACTH challenge test was performed on Day −2 and on Day 6 to evaluate Compound A HBr selectivity for aldosterone synthesis. Plasma concentrations of aldosterone and 11-deoxycortisol and serum concentrations of cortisol and 11-DOC were measured pre-ACTH dose and 30 and 60 minutes post-ACTH dose on Day −2 and Day 6.\nPlasma PK parameters were derived by non-compartmental analysis using WinNonlin® (version 6.3). Dose proportionality was assessed using the power model with AUC0-∞, AUC0-last, and Cmax for part 1 (SAD) and with AUC0-last, AUC0-∞, AUC0-τ, and Cmax for part 2 (MAD). A linear model (ln(Y)=α+β×ln(X), where Y is the pharmacokinetic parameter and X is the dose) was used to fit the power model, after log-transformation of the parameters. Dose proportionality was concluded if the 95% confidence interval (CI) for slope (β) included the value 1.\nAn analytical method for the determination of Compound A in human plasma (dipotassium ethylenediaminetetraacetic acid [K2-EDTA]) and human urine using solid-phase extraction and high-performance liquid chromatography with mass spectrometric detection was successfully validated over the concentration range 0.1000 ng/mL (lower limit of quantification) to 100.0 ng/mL prior to initiation of the clinical trial. […] For all other analytes, validated quantitative measurement methods were used."}, "[2]": {"target": "T1, human CYP 11B1 (hCYP11B1) (Homo sapiens, UniProt P15538)", "T1 construct": "expressed in transfected cells; host or cells: V79 cells (mitochondrial fraction)", "T1 sequence (P15538 25-503)": "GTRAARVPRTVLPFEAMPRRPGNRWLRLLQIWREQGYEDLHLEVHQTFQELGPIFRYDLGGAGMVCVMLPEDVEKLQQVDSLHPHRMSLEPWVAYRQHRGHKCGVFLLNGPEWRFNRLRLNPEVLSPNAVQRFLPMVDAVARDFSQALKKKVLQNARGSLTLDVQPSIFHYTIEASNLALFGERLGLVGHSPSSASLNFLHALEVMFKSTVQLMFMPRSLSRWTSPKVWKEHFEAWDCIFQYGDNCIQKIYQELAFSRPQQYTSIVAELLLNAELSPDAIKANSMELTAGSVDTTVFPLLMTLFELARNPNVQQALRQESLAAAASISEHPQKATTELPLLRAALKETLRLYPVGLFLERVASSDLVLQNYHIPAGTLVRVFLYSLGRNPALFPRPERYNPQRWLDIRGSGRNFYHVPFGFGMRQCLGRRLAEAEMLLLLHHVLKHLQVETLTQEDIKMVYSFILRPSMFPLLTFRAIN", "assay": "Assay of hCYP11B1 inhibition (11-deoxycortisol to cortisol)", "assay_type": "biochemical", "conditions": "mitochondrial fraction of V79 cells stably expressing hCYP11B1; substrate 11-deoxycortisol; read-out: Inhibition constant (Ki) hCYP11B1", "method": "The inhibitory effects of Compound A on human CYP 11B1 (hCYP11B1) and human CYP11B2 (hCYP11B2) enzyme activity were evaluated by determining the enzymatic conversion rates of 11-deoxycortisol to cortisol for hCYP11B1 and 11-DOC to aldosterone for hCYP11B2."}, "[3]": {"assay": "13-week repeat-dose oral toxicology study in monkeys", "assay_type": "in vivo, cynomolgus monkey", "conditions": "cynomolgus monkey, in vivo, oral", "method": "(§1) The toxicologic profile of Compound A was assessed in several toxicology studies, including 13-week repeat-dose oral studies in Sprague Dawley rats and cynomolgus monkeys, a standard battery of genotoxicity studies, preliminary embryo-fetal development studies in rats and rabbits, and in vitro and in vivo phototoxicity studies. Rats and monkeys were selected for the general toxicology studies on the basis of pharmacology and metabolism data that indicated these animals would have metabolism similar to that of humans. Studies were performed in accordance with GLP regulations.\n(§2) Doses in the 13-week toxicology studies were 0, 50, 150, 450 (female), and 600 (male) mg/kg/d in Sprague Dawley rats. In cynomolgus monkeys (females and males), the doses were 0, 10, 30, and 100 mg/kg/d. Hematoxylin-and-eosin-stained sections (nominal thickness of approximately 5 μm) were prepared from the formalin-fixed paraffin-embedded organs/tissues of all animals in the toxicology studies."}, "cynomolgus monkeys": {"test_system": "cynomolgus monkeys", "assay": "13-week repeat-dose oral toxicology study in monkeys", "assay_type": "in vivo, cynomolgus monkey", "method": "as §1, §2"}}, "note": "pKi: −log10 of the molar value. Read-outs that look alike come from different tables or passages of the source.", "data": [{"smiles": "CC(=O)N[C@H]1CC[C@H](NC(=O)CN2CCN(c3nncc(-c4ccc(C)cc4)n3)CC2)CC1", "note": "[Compound A HBr]", "values": [{"measurement": "AUC0-24, mean (SD)", "setting": "[1]; 40 mg once daily, Day 1, fed", "result": "1574 (282) ng × h/mL"}, {"measurement": "Cmax, mean (SD)", "setting": "[1]; 40 mg once daily, Day 1, fed", "result": "252 (64) ng/mL"}, {"measurement": "Tmax, median and range", "setting": "[1]; 40 mg once daily, Day 1, fed", "result": "3 (0.5-5) h"}, {"measurement": "AUC0-24, mean (SD)", "setting": "[1]; 40 mg once daily, Day 7, fed", "result": "1795 (312) ng × h/mL"}, {"measurement": "Cmax, mean (SD)", "setting": "[1]; 40 mg once daily, Day 7, fed", "result": "365 (46) ng/mL"}, {"measurement": "T 1/2, mean (SD)", "setting": "[1]; 40 mg once daily, Day 7, fed", "result": "9 (2) h"}, {"measurement": "Tmax, median and range", "setting": "[1]; 40 mg once daily, Day 7, fed", "result": "1.5 (0.5-5) h"}, {"measurement": "AUC0-24, mean (SD)", "setting": "[1]; 120 mg once daily, Day 1, fed", "result": "4876 (1024) ng × h/mL"}, {"measurement": "Cmax, mean (SD)", "setting": "[1]; 120 mg once daily, Day 1, fed", "result": "887 (291) ng/mL"}, {"measurement": "Tmax, median and range", "setting": "[1]; 120 mg once daily, Day 1, fed", "result": "3 (0.5-8) h"}, {"measurement": "AUC0-24, mean (SD)", "setting": "[1]; 120 mg once daily, Day 7, fed", "result": "5816 (1315) ng × h/mL"}, {"measurement": "Cmax, mean (SD)", "setting": "[1]; 120 mg once daily, Day 7, fed", "result": "1039 (343) ng/mL"}, {"measurement": "T 1/2, mean (SD)", "setting": "[1]; 120 mg once daily, Day 7, fed", "result": "12 (2) h"}, {"measurement": "Tmax, median and range", "setting": "[1]; 120 mg once daily, Day 7, fed", "result": "2.5 (1-4)^ h"}, {"measurement": "AUC0-24, mean (SD)", "setting": "[1]; 360 mg once daily, Day 1, fed", "result": "19335 (3111) ng × h/mL"}, {"measurement": "Cmax, mean (SD)", "setting": "[1]; 360 mg once daily, Day 1, fed", "result": "3220 (1171) ng/mL"}, {"measurement": "Tmax, median and range", "setting": "[1]; 360 mg once daily, Day 1, fed", "result": "3 (2-5) h"}, {"measurement": "AUC0-24, mean (SD)", "setting": "[1]; 360 mg once daily, Day 7, fed", "result": "21825 (3955) ng × h/mL"}, {"measurement": "Cmax, mean (SD)", "setting": "[1]; 360 mg once daily, Day 7, fed", "result": "3812 (1282) ng/mL"}, {"measurement": "T 1/2, mean (SD)", "setting": "[1]; 360 mg once daily, Day 7, fed", "result": "9 (2) h"}, {"measurement": "Tmax, median and range", "setting": "[1]; 360 mg once daily, Day 7, fed", "result": "2 (1-3) h"}, {"measurement": "half-life", "setting": "[1]; 40 mg once daily, Day 1, fed, read-out: T 1/2, mean (SD) (converted)", "result": 5, "unit": "h"}, {"measurement": "half-life", "setting": "[1]; 120 mg once daily, Day 1, fed, read-out: T 1/2, mean (SD) (converted)", "result": 4, "unit": "h"}, {"measurement": "half-life", "setting": "[1]; 360 mg once daily, Day 1, fed, read-out: T 1/2, mean (SD) (converted)", "result": 4, "unit": "h"}, {"measurement": "half-life", "setting": "[1]; once-daily dosing, read-out: t1/2 on Day 7 (converted)", "result": "~10", "unit": "h"}, {"measurement": "Steady state achieved by", "setting": "[1]; once-daily 40 to 360 mg", "result": "~5", "unit": "days"}]}, {"smiles": "CC(=O)N[C@H]1CC[C@H](NC(=O)CN2CCN(c3nncc(-c4ccc(C)cc4)n3)CC2)CC1", "note": "[Compound A]", "values": [{"measurement": "pKi", "setting": "[2]", "result": 6.32}, {"measurement": "NOAEL at 13 weeks", "setting": "[3]; female monkeys", "result": 10, "unit": "mg/kg/day"}, {"measurement": "NOAEL at 13 weeks", "setting": "[3]; male monkeys", "result": 30, "unit": "mg/kg/day"}, {"measurement": "effects on electrocardiogram values", "setting": "cynomolgus monkeys; doses up to 100 mg/kg/d", "result": "no Compound A-related effects"}, {"measurement": "effect on cortisol", "setting": "cynomolgus monkeys; monkeys", "result": "no effects on cortisol"}, {"measurement": "adrenal findings", "setting": "cynomolgus monkeys; monkeys, all dose levels (10, 30, 100 mg/kg/d)", "result": "Hypertrophy of zona glomerulosa cells in the adrenal cortices and decreased PACs"}]}]}
